Source: the SangsterLogP compilation

Assay: method code SF-HPLC, from DOI: 10.1248/cpb.43.2238

logP | Compound
0.84 | CNC(=O)c1cccs1
1.26 | CC(=O)c1ccsc1
1.27 | CC(=O)c1cccs1
1.89 | c1ccsc1
3.01 | CCCOC(=O)c1cccs1
3.03 | CCCOC(=O)c1ccsc1
1.68 | CCCNC(=O)c1cccs1
2.32 | CCOC(=O)c1ccsc1
0.81 | CNC(=O)c1ccsc1
2.55 | Clc1ccsc1
1.34 | N#Cc1cccs1
1.18 | CCNC(=O)c1cccs1
1.65 | CCCNC(=O)c1ccsc1
1.83 | COC(=O)c1cccs1
1.58 | O=[N+]([O-])c1cccs1
2.13 | COc1cccs1
1.18 | CCNC(=O)c1ccsc1
